One test has as its system HUVEC (VEGF). Briefly: MTT assay. The format is cell-based. As to conditions: Homo sapiens, 72 h, Table 5, 3 days incubation. Summed up:
(§1)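 Cells were seeded at line-dependent density and stabilised overnight at 37 °C, then exposed to compounds for 3 days at 37 °C. MTT was then added for 2 h and the formazan dissolved in DMSO.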

Test [1] concerns HCT-116 KRAS G13D (colon). Briefly: MTT assay. It counts as cell-based. Conditions: Homo sapiens, HCT-116, 72 h; Table 5; 3 days incubation; read-out: MTT assay IC50 KRAS mutant (Colon) HCT-116 KRAS G13D. The method in brief:
as §1
A general note: Formazan colour is commonly taken as a measure of viable cells.

The test system of the next test is WiDR BRAF V600E (colon). Briefly: MTT assay. Conditions: Homo sapiens, 72 h, Table 5, 3 days incubation, read-out: MTT assay IC50 BRAF mutant (Colon) WiDR BRAF V600E. It counts as cell-based. Summed up:
as §1

The subject of another test is LS513 KRAS G12V (colon). Put plainly: MTT assay. It counts as cell-based. Conditions: Homo sapiens, LS-513, 72 h, 3 days incubation, read-out: MTT assay IC50 KRAS mutant (Colon) LS513 KRAS G12V. Summed up:
as §1

Test [2] deals with A-375P BRAF V600E (melanoma). Briefly: MTT assay. It counts as cell-based. Conditions: A375P, 72 h; Table 5; 3 days incubation. The method in brief:
as §1

In test [3] the test system is SK-MEL2 NRAS Q61R (melanoma). Briefly: MTT assay. As to conditions: Homo sapiens, SK-MEL-2, 72 h; Table 5; 3 days incubation. The format is cell-based. The method in brief: as §1
The next test relates to SW620 KRAS G12V (colon). Briefly: MTT assay. The format is cell-based. Conditions: Homo sapiens, SW-620, 72 h; Table 5; 3 days incubation; read-out: MTT assay IC50 KRAS mutant (Colon) SW620 KRAS G12V. The method in brief:
as §1

The next test addresses B-Raf (Homo sapiens (Human), UniProt P15056). Put plainly: Raf kinase inhibitory activity (Raf/MEK1/MAPK2 cascade, MBP phosphorylation, 32P). The format is biochemical. Here is the method: (§2) In order to examine the inhibitory activities of the compounds of the present invention against Raf kinases (B-Raf, C-Raf, B-Raf^V600E), the following experiment was performed.
(§3) (1) Consecutive Signal Transduction Reaction
(§4) To a centrifugation tube, 20 μl of a dilution solvent (20 mM MOPS, pH 7.2, 25 mM (3-glycerol phosphate, 5 mM EGTA, 1 mM sodium orthovanadate, 1 mM dithiothreitol) and 20 μl of a Mg/ATP mixture (500 μM ATP and 75 mM magnesium chloride) were added. Then, each of the derivative compounds of formula 1 was added. As a control, 1 ng of activated raf, 0.4 ng of inactivated MEK1 and 1 μg of inactivated MAPK2 were added without adding Example compounds. The solutions in the tube were concentrated at the bottom of the tube by centrifugation, and then allowed to react at 30° C. for 30 minutes, and 4 μl of the mixture solution was taken and used in the next experimental step.
(§5) (2) Phosphorylation of Substrate Protein MBP by MAPK2
(§6) To 4 μl of the mixture solution taken in (1), 10 μl of a dilution solvent, 20 μg of MBP as a substrate, and 10 μl of diluted [γ-32P]ATP (1 μCi/μL) were added. The solutions in the tube were concentrated at the bottom of the tube by centrifugation, and then allowed to react at 30° C. for 30 minutes. 25 μl of the reaction solution was carefully placed on the center of 2 cm×2 cm P81 filter paper for 30 seconds. Next, the filter paper was washed three times with 0.75% phosphoric acid solution for 10 minutes each time and washed once with acetone for 5 minutes. Next, the filter paper was transferred into a scintillation vial, and 5 ml of a scintillation cocktail was added thereto. Raf activity inhibition rate (IC50) was measured by reading the radioactivity with a scintillation counter in comparison with the control.

For a further test, the target named is B-Raf V600E (Homo sapiens (Human), UniProt P15056, V600E). The test is described as above. It counts as biochemical. Here is the method:
as §2, §3, §4, §5, §6

In a further test the target is C-Raf (Homo sapiens (Human), UniProt P04049). The description is as above. The format is biochemical. The protocol: as §2, §3, §4, §5, §6
Test [4] relates to LS513 human colorectal cancer cell line xenograft. Briefly: Antitumor effect on human colorectal cancer LS513 cell line xenograft. It counts as in vivo, Balb/c nu/nu nude mice. Conditions: oral, twice a day, 14 days. The source says: In this experiment, 5 to 6-week-old female Balb/c nu/nu nude mice (weighed 18 to 20 g) were used. The mice were provided from Nara Biotech Co., Ltd. During the experiment, all the animals were housed on a mouse constant temperature/constant humidity shelf (Individually Ventilated Cages System, LAB & BIO).
Each cage (37.2 cm length×19.2 cm width×13.1 cm height) was sterilized with a sterilizer, and eight mice were received in each cage. The mice were maintained in a hygienic environment controlled to a temperature of 20 to 24° C. and a humidity of 40 to 70% with a 12-hr light/12-hr dark cycle. The mice were allowed to access sterilized feed and drinking water ad libitum. The care and treatment of these animals were carried out according to the Laboratory Animal Care Guidelines of Samjin Pharmaceutical Co., Ltd.
The mice were acclimated to the housing facility for 1 week, and then 0.1 mL of a cell suspension containing 1×10^7 cells was injected subcutaneously into the right flank of each mouse. After cell transplantation, the volume of the formed tumor was measured, and mice with formed tumors having a volume of 150 mm^3 or more were randomly divided into groups (each consisting of 7 to 8 animals) for treatment with the test compounds and a control. […] Administration of the drugs was continued for 14 days. […] At 3-day intervals from the starting day of the administration, the long axis and short axis of the tumor were measured with digital vernier calipers, and the tumor volume was calculated using the following equation and recorded: Tumor volume (TV)=Long axis×short axis^2/2.
Tumor growth inhibition for absolute tumor volume was calculated using the following equation. In the following equation, V0 is the tumor volume on the first day of drug administration (day 0), and Vt is the tumor volume after last drug administration.
(In general: In xenograft studies the graft and the host belong to different species.)

Test [5] addresses VEGFR-2 tyrosine kinase (KDR) (Homo sapiens (Human), UniProt P35968). Briefly: VEGFR-2 tyrosine kinase inhibitory activity (ADP-Glo kinase assay). The format is biochemical. As to conditions: KDR 50 ng. On the technique in general: ADP-Glo turns the ADP formed in a reaction into a luminescent signal.
Description: The inhibitory activities of the compounds of the present invention against VEGFR-2 tyrosine kinase were analyzed using ADP-Glo™ kinase assay kit commercially available from Promega. In the principle of the analysis, kinase, a substrate and ATP are reacted with one another, and then ADP-Glo™ solution is added thereto. The ATP is removed while leaving the produced ADP, and the remaining ADP is converted to ATP by use of a kinase detection reagent, and the ATP is reacted with a luciferin substrate, and the emitted luminescence is measured.
Reaction time: 30 min (30° C.)/40 min/30 min;

pIC50: −log10 of the molar value. Where two headings read alike, the source gives them in different places.

B-Raf V600E, sequence (P15056 whole entry V600E): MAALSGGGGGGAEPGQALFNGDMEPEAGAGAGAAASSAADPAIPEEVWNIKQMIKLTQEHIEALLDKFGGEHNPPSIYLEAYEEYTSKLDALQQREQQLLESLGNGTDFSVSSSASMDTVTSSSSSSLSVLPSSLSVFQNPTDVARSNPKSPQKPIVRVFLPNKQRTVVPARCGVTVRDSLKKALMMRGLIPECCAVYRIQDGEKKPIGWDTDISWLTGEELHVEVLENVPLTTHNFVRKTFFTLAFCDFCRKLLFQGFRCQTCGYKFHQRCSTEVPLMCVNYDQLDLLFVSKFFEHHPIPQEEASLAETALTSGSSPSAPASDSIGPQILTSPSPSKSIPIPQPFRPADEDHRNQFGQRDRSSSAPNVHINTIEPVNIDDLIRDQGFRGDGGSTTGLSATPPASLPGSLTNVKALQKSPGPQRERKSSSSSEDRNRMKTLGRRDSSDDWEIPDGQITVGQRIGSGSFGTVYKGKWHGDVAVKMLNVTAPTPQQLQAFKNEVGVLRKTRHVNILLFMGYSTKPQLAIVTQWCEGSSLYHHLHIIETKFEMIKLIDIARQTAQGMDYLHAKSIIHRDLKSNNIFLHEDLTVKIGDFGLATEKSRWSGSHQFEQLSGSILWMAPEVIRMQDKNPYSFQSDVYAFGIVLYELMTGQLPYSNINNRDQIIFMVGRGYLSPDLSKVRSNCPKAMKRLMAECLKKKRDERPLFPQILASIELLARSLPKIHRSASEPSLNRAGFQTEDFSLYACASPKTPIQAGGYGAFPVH
C-Raf, sequence (P04049 whole entry): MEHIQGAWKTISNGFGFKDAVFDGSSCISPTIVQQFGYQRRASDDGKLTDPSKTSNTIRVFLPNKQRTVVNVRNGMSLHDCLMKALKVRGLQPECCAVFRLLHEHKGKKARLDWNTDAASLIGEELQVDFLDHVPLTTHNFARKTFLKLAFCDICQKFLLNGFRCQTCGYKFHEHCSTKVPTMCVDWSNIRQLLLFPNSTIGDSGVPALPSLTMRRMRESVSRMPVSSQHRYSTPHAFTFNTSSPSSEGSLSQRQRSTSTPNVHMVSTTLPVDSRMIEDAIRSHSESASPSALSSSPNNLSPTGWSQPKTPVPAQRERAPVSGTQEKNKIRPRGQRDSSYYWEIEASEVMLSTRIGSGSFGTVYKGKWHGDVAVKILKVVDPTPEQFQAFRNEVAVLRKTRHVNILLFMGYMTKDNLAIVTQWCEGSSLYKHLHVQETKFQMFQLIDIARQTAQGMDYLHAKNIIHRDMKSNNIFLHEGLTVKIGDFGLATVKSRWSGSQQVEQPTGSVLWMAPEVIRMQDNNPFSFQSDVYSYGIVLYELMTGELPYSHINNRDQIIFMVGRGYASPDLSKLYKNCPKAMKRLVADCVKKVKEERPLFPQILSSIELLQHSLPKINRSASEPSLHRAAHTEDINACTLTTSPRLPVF
B-Raf, sequence (P15056 whole entry): as the sequence (P15056 whole entry V600E) above, with E600V counted along it
VEGFR-2 tyrosine kinase (KDR), sequence (P35968 20-1356): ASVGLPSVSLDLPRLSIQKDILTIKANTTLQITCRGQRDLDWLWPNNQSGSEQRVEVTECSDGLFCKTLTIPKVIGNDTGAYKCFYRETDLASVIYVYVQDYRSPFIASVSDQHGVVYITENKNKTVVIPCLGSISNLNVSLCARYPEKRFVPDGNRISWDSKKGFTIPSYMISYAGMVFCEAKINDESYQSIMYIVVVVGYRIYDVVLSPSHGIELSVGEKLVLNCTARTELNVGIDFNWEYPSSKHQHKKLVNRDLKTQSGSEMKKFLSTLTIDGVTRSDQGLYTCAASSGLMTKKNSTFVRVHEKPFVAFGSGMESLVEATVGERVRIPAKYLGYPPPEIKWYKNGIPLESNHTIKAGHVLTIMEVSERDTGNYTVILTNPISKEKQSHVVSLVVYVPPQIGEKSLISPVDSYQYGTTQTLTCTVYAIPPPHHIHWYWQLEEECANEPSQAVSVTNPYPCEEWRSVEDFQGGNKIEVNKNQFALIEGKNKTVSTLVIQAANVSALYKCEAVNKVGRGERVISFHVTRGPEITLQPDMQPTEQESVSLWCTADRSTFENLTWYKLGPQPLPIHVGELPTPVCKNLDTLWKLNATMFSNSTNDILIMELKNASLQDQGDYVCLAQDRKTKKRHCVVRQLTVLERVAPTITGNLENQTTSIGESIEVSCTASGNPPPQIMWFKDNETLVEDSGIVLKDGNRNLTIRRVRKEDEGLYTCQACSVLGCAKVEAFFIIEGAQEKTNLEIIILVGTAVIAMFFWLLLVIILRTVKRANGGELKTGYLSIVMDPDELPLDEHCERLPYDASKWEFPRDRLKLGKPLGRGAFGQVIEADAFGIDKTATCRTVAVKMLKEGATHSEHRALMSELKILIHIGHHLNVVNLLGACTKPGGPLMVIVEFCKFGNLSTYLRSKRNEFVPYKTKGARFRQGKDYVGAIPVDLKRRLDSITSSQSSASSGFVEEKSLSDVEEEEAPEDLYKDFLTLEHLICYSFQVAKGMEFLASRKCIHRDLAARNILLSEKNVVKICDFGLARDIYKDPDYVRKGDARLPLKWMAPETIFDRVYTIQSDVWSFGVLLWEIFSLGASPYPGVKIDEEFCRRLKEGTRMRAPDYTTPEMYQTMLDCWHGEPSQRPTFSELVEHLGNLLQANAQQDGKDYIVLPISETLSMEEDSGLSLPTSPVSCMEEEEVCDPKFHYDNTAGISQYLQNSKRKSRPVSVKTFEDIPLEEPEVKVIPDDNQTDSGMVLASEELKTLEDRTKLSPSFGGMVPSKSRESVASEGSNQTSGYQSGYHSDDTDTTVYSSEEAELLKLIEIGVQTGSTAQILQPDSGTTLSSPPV

The pIC50 is the negative decadic logarithm of the IC50, by convention in mol/L. On to `CC(C)(C#N)c1cccc(C(=O)Nc2cc(Nc3ncccc3-c3ncnc4[nH]cnc34)ccc2F)c1` [Example 21, N-(5-(3-(9H-purin-6-yl)pyridin-2-ylamino)-2-fluorophenyl)-3-(2-cyanopropan-2-yl)benzamide], for which the pIC50 was 7.40 in the test on HUVEC (VEGF); 7.20 in test [1]; 7.55 in the test on WiDR BRAF V600E (colon); 6.48 in the test with LS513 KRAS G12V (colon) (Table 4); 6.80 in the test with LS513 KRAS G12V (colon) (Table 5); 7.62 in test [2]. The pIC50 in [3] was 6.89; in the test on SW620 KRAS G12V (colon) it was 6.60; on B-Raf it was 7.68; at B-Raf V600E, 8.00; at C-Raf, 8.00. For the same compound, the “antitumor effect (tumor growth inhibition) compared to the control group” value in test [4] (30 mg/kg) is reported as “about 66.7%”; in test [4] (60 mg/kg) it was 90.3%.
Regarding `O=C(Nc1cc(Nc2ncccc2-c2ncnc3[nH]cnc23)ccc1F)c1cccc(C(F)(F)F)c1` [Example 30, N-(5-(3-(9H-Purin-6-Yl)Pyridin-2-Ylamino)-2-Fluorophenyl)-3-(Trifluoromethyl)Benzamide], the pIC50 in the test on HUVEC (VEGF) was 7.89; in test [1], 6.84; in the test with WiDR BRAF V600E (colon), 6.20; in the test with LS513 KRAS G12V (colon) (Table 4), 6.84; in the test with LS513 KRAS G12V (colon) (Table 5), 7.10; in test [2], 6.61. The negative logarithm of the IC50 (pIC50) in [3] was 6.91; in the test on SW620 KRAS G12V (colon), 6.06; at B-Raf, 8.57; on B-Raf V600E, 8.28; against C-Raf it was 9.15. Further, the “antitumor effect (tumor growth inhibition) compared to the control group” value in [4] (30 mg/kg) worked out at 76.9%; in test [4] (60 mg/kg) it was 88.7%.
Take `O=C(Nc1cc(Nc2ncccc2-c2ncnc3[nH]cnc23)ccc1F)c1cc(F)cc(C(F)(F)F)c1` [Example 36, N-(5-(3-(9H-Purin-6-Yl)Pyridin-2-Ylamino)-2-Fluorophenyl)-3-Fluoro-5-(Trifluoromethyl)Benzamide]: the pIC50 is 7.82 with HUVEC (VEGF); 6.93 in [1]; 6.19 in the test on WiDR BRAF V600E (colon); 6.60 with LS513 KRAS G12V (colon) (Table 4); 6.90 in the test on LS513 KRAS G12V (colon) (Table 5); 6.57 in test [2]. The pIC50 in [3] was 6.41; with SW620 KRAS G12V (colon), 6.17; at B-Raf it was 7.15; against B-Raf V600E, 7.52; against C-Raf, 7.39. Besides, the “antitumor effect (tumor growth inhibition) compared to the vehicle control” value in test [4] (60 mg/kg or 30 mg/kg (dose not specified per compound)) amounted to 78.5%.
`Cc1ccc(NC(=O)c2cccc(C(F)(F)F)c2)cc1Nc1ncccc1-c1ncnc2[nH]cnc12` [Example 71, N-4-Methyl-5-[3-(9H-Purin-6-Yl)Pyridin-2-Ylamino)Phenyl-3-Trifluoromethylbenzamide]: the pIC50 in the test on LS513 KRAS G12V (colon) (Table 4) was 6.25; in test [5], 5.80.

(Values after patent US10844062B2, “Pyridine derivative inhibiting RAF kinase and vascular endothelial growth factor receptor, method for preparing same, pharmaceutical composition containing same, and use thereof” (SAMJIN PHARMACEUTICAL CO., LTD., priority 2016, dated 2020).)
